Data on 2 compounds can be found in patent publication US7462641B2, “(2S,4S)-4-fluoro-1-[4-fluoro-beta-(4-fluorophenyl)-L-phenylalanyl]-2-pyrrolidinecarbonitrile p-toluenesulfonic acid salt and anhydrous crystalline forms thereof” (SmithKline Beecham Corporation, priority 2003, dated 2008).

The structures appear in SMILES notation. Structures can show the parent of a compound that is named as a salt. Bounds are passed on as bounds.

Data set [1] is described as follows: Moisture sorption testing (gas flow microbalance, VTI SGA-100). Format: physicochemical. To be noted: for hygroscopicity: 25° C.
Experimental: The sample was equilibrated at 25° C. and 30% relative humidity and the relative humidity increased stepwise (adsorption) to 40, 50, 60, 70, 80, 90%—each relative humidity step was held until the sample equilibrated at that condition. Equilibrium was defined as a weight change of less than 0.015% in 5 minutes. The relative humidity was then decreased step wise (desorption) to 90, 80, 70, 60, 50, 40, 30, 20, 10, and 5%—each step held until equilibrium was reached. The equilibrium condition was the same as in the sorption phase. The % w/w increase or decrease in moisture content of the sample is reported for each equilibrated RH condition.
The sample was dried at 60C under a dry nitrogen stream until the rate of weight loss was less than 0.015% in 5 minutes. After drying the sample was equilibrated at 25C and the relative humidity increased stepwise (adsorption) to 5, 20, 45, 75, and 95%—each relative humidity step was held until the sample equilibrated at that condition or a 180 minute time limit was reached. Equilibrium was defined as a weight change of less than 0.015% in 5 minutes. The relative humidity was then decreased step wise (desorption) to 75, 45, and 20%—each step held until equilibrium was reached. The equilibrium condition was the same as in the sorption phase. The % w/w increase or decrease in moisture content of the sample is reported for each equilibrated RH condition.
A further data set concerns the target DPP IV (Homo sapiens, UniProt P27487). The settings on record: as noted in WO 03/02531; cited from earlier work.
The nature of data set [2]: Stability testing in 40 C/75% RH oven. Format: physicochemical. To be noted: after two (2) weeks in an 40 C/75% RH oven.

DPP IV, sequence (P27487 whole entry, species assumed): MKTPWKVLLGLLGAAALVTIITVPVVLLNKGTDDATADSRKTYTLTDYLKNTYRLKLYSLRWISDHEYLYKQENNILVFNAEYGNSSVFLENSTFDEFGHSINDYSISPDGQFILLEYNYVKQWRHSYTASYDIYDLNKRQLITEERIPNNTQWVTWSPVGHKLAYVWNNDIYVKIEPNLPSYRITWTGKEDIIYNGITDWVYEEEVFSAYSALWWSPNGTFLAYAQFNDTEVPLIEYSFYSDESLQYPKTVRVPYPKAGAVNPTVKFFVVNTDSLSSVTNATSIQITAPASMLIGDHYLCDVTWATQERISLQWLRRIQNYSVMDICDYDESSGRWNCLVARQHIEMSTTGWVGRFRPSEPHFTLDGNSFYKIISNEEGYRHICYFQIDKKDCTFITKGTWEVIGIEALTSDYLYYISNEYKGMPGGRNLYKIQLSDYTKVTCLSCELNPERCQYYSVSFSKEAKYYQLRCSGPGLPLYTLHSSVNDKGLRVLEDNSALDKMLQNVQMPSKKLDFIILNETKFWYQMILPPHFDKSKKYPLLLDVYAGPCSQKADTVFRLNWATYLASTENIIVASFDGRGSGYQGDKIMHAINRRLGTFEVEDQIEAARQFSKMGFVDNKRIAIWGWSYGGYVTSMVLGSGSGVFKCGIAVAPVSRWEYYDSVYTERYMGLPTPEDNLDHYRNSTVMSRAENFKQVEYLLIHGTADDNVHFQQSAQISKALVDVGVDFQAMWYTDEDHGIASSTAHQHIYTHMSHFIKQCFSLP

With `N#C[C@@H]1C[C@H](F)CN1C(=O)[C@@H](N)C(c1ccc(F)cc1)c1ccc(F)cc1` [HCl salt, (2S,4S)-1-[(2S)-2-Amino-3,3-bis(4-fluorophenyl)propanoyl]-4-fluoropyrrolidine-2-carbonitrile hydrochloride, reference compound], the hygroscopicity entry in data set [1] (hydrochloride) was “hygroscopic”. In addition, in data set [1] (95% relative humidity at 25° C.), the water adsorbed is on record as over 10%. Also, the “inhibition activity of DPP IV” value at DPP IV is “demonstrates inhibition activity of DPP IV”.

`N#C[C@@H]1C[C@H](F)CN1C(=O)[C@@H](N)C(c1ccc(F)cc1)c1ccc(F)cc1` [anhydrate form 1, (2S,4S)-4-fluoro-1-[4-fluoro-β-(4-fluorophenyl)-L-phenylalanyl]-2-pyrrolidinecarbonitrile p-toluenesulfonic acid salt]: the hygroscopicity entry in data set [1] is “not hygroscopic”. Besides, the water adsorbed result in data set [1] (relative humidity between 0% and 95% at 25C) is listed as “less than 1 % w/w”; in data set [1] (relative humidity between 5% to 90% at 25° C.) it was “very little water”. The “desorption of adsorbed water” value in data set [1] (when the relative humidity is decreased) is given as “readily desorbs”. In data set [2], the “stability (purity data)” value is on record as “beneficial properties with regard to stability”.
